Measurements as given in US7122326B2 (Universite Louis Pasteur, priority 2001, dated 2006).
“Also recorded” adds a separate entry of the source.

Columns and labels:
[1] = system: rat; experiment: Rotations in rats with unilateral 6-OHDA lesions; assay type: in vivo; conditions: rat, in vivo
[2] = system: rat; conditions: in vivo; cited from earlier work
[3] = system: rat; experiment: Reversal of XA-induced sedation in the open field test; conditions: in vivo
Experimental: Study of reversal of sedation induced by XA 100 mg/kg i.p

[4] = system: xanthurenic acid receptor(s); assay type: cell-based
[5] = system: glutamate release in the frontal cortex; experiment: Frontal extracellular glutamate release after retrodialysis of XA; conditions: rat, in vivo
Experimental: Amino acids contained in 15 μl of dialysate were separated according to their hydrophobicity by reverse phase high performance liquid chromatography (HPLC). […] The mobile phase was composed of a binary gradient between solution A: 0.05 M NaH2PO4 (Roth) 80% (pH 4.8 adjusted with 10 N NaOH), methanol 20% (Chromanorm, Prolabo); and solution B: 0.05 M NaH2PO4 20% (pH 4.8 ajusted with 10 N NaOH), methanol 80% and THF 5%. Glutamate and GABA were measured by fluorimetric detection at an excitation wavelength of 345 nm and an emission wavelength of 455 nm after derivatization. Chromatogram acquisition and quantitative data analysis were done with Millenium software (Waters).
The samples were derivatized by mixing 15 μl of dialysate with 15 μl of the following derivatization solution: 7.5 mg o-phthaldialdehyde (Sigma) in 4.5 ml of 0.1 M sodium tetraborate pH 9.3, 500 μl of methanol and 10 μl of 3-mercapto-propionic acid (Sigma). The elution rate was 0.8 ml/min at 35° C. in a series of steps: 90% A and 10% B at 0 min; 40% A and 60% B to 15 min (linear gradient); 40% A and 60% B to 19 min (isocratic gradient); 0% A and 100% B to 19.1 min; 0% A and 100% B to 24 min (isocratic gradient); 90% A and 10% B to 24.1 min (isocratic gradient) and 90% A and 10% B to 30 min. […]

[6] = system: extracellular dopamine release in the PFC; experiment: Microdialysis of dopamine, DOPAC and HVA in PFC after local XA; conditions: rat, in vivo
Experimental: • Animals: Adult male Wistar rats weighing 250 to 275 g were housed in pairs in plastic cages with a standard 7 a.m.–7 p.m. light cycle and free access to food and water. Animals studies were conducted in accordance with the requirements of the EEC directive of 24 Nov. 1986 (86/609/EEC). • Chemicals: XA, 6-OHDA hydrobromide, 2,4,5-trihydroxyphenylethylamine and desipramine were purchased from Sigma. NCS-486 was produced by the Laboratoire de Pharmacochimie of the CNRS in Strasbourg. • Surgical protocol: An L-shaped cannula with 4 mm tip (CMA 12, Carnegie, Sweden) was used for the experiments. The dialysis membrane, 500 μm in diameter, was made of polycarbonate-polyether with a 20 Kda cutoff. The probe guide was implanted in the PFC under stereotactic guidance. Animals were anesthetized with ketamine hydrochloride (150 mg/kg i.p.)
The experiments were carried out in conscious rats with and without induced lesions, 24 to 48 hours after surgical insertion of the microdialysis probe. The composition of the microdialysis medium was as follows: 147 mM NaCl; 1.2 mM CaCl2; 1.2 mM MgCl2; 4.0 mM KCl, pH 6.5. The dialysis rate was 1 μl/min (CMA 100 pump, Carnegie). Dialysates were collected in 20 minute fractions and stored immediately in liquid nitrogen pending analysis.
These compounds were analyzed by HPLC with electrochemical detection. The chromatographic system consisted of a 25 cm×4.6 mm C18 column maintained at a constant temperature of 30° C. The mobile phase was 50 mM NaH2PO4 containing 0.1 mM EDTA and 6% methanol, the pH of the solution was adjusted to 4.85.
Retrodialyzed XA concentrations were respectively 1 μM (black circles), 5 μM (black squares) and 20 μM (black triangles). XA was applied during a 20 minute dialysis. The results are expressed as the percentage of mean baseline dopamine release (determined on eight 20-min dialysis fractions prior to stimulation by XA) (FIG. 20).

O=C(O)c1cc(O)c2cccc(O)c2n1 [XA, xanthurenic acid]
controlateral rotations induced by apomorphine [1]: did not antagonize; also recorded: did not modify the number of controlateral rotations | ipsilateral rotations induced by amphetamine [1]: had no effect | analgesic effect in hotplate and tail flick tests [2]: analgesic effect | Grooming [3]: 4 ± 2 | Inner squares [3]: 19 ± 6 | Outer squares [3]: 91 ± 17 | Standing [3]: 37 ± 14 | Total squares [3]: 110 ± 25 | factor of increase of current amplitude at the peak of the transient current [4]: 5 factor | factor of increase of current amplitude, on average [4]: 5.0±1.7 factor | inversion potential, onset of the response [4]: −16.5 mV | inversion potential, second phase of the response [4]: −4.2 mV | mean outflux current [4]: considerably increased | decrease in GLU release [5]: 37% | DOPAC release in PFC [6]: decreased slightly | HVA release in PFC [6]: decreased slightly | effect on dopamine release in PFC [6]: had no effect on dopamine release | increase of extracellular dopamine release in PFC [6]: approximately 250%
